Source: patent US5593835A, “Methods and kits for RNA binding compounds” (President and Fellows of Harvard College, priority 1995, dated 1997)
Where two headings read alike, the source gives them in different places.

Legend:
[1] = biological target: W13 RNA having SEQ ID NO:1; assay: Fluorescence (PYT quenching) titration and competition binding to W13 RNA; settings: fluorescence; competition with PYT (150 nM PYT, 300 nM W13), 20° C., pH 7.4; N.B. = no measurable binding
Method: To study the binding behavior of clone W13, a fluorescently labelled pyrene-conjugated tobramycin derivative "PYT" was prepared.
For competitive binding studies, different concentrations of antibiotic (glucosamine (0-10 mM), erythromycin (0-6 mM), gentamicin C (0-700 μM), or neomycin B (0-650 μM)), were mixed with constant concentrations of RNA (300 nM W13) and PYT (150 nM), in Binding buffer (140 mM NaCl, 5 mM KCl, 1 mM MgCl2, 1 mM CaCl2, 20 mM HEPES, pH 7.4), 750 μl total volume, for 1-5 min. at 20° C. in a semimicro-cell cuvette. The fluorescence was measured on a Perkin-Elmer Model 512 double beam fluorescence spectrophotometer. The excitation wavelength used was 341 nm. The intensities of fluorescence emission at 380 nm were used to calculate dissociation constants. Generally 8 to 10 points were used for calculation.
(§1) Steady state fluorescence measurements were performed on a double beam fluorescence spectrometer (Perkin-Elmer Model 512, Norwalk, Conn.). The excitation wavelength was 341 nm. All measurements were done at 20° C. in 140 mM NaCl, 5 mM KCl, 1 mM CaCl2, 1 mM MgCl2, and 20 mM HEPES, pH 7.4. The KD of the PYT and the RNA aptamer was calculated by the curve fitting of the fluorescence intensity as a function of RNA concentration, using the following equation
(assuming a 1:1 complex): I=Io +0.5Δε ([PYT]o
-(([PYT]o +[RNA]o KI)^2 -4[PYT]o [RNA]o)^0.5)
(§2) Competition binding measurements of antibiotics with RNA and PYT were performed at constant concentrations of PYT and RNA by monitoring fluorescence intensity changes as a function of changing concentrations of the antibiotics (a standard fluorescence curve). The KD s for the antibiotics were calculated by the curve fitting of the fluorescence intensity of PYT as a function of antibiotic concentration, using the following equation:
I=Io +Δε[PYT.circle-solid.RNA]
[PYT.circle-solid.RNA]=0.5(([PYT]o +[RNA]o)([RNA]o
+KD)+KI ([T]o +[RNA]o +KD)-((([PYT]o
+[RNA]o)([RNA]o +KD)+KI ([T]o +[RNA]o
+KD))^2 -4([RNA]o +KD) [PYT]o [RNA]o
([RNA]o +KD))^0.5)([RNA]o +KD) (equation 2)
KD and KI are the dissociation constants for the antibiotic and PYT respectively.
[T]o is the total concentration of antibiotic added. Measurements were taken at least twice for each measured KD.

J6 RNA (SEQ ID NO:5) = assay: Fluorescence binding measurements, J6 RNA
Method: (§3) The binding of tobramycin to two cloned RNAs X1 (SEQ ID NO:2) and J6 (SEQ ID NO:5), representative of both classes of consensus sequences, was measured using the fluorescence techniques described in the exemplification.
as §1
as §2, with “equation: […]” for “equation:”

[2] = biological target: J6a1 RNA (SEQ ID NO: 5), synthetically derived from the predicted structures; assay: Fluorescence binding measurements, J6a1 RNA
Method: as §3
*synthetically derived from the predicted structures
as §1
as §2, with “equation: […]” for “equation:”

[3] = system: RNA pool transcribed from DNA after the sixth selection, bound to tobramycin affinity column; assay: Elution of bound RNA from tobramycin affinity column; format: binding; settings: 3 column volumes of 10 mM tobramycin
Description: Elution patterns of the RNA from the columns are shown in FIG. 4 for the second and sixth selections. Over 6 cycles of selection, the percentages of RNA specifically eluted with tobramycin were <0.1%, 3.0%, 2.9%, 26%, 55%, and 82%. […] The RNA pool transcribed from DNA after the sixth selection could not be eluted from the affinity column, even after 100 column volumes of selection buffer.
An N-hydroxysuccinimide Affi-Gel affinity column (Bio-Rad, Hercules, Calif.) was derivatized with either 20 μmoles or 0.075 μmoles tobramycin per ml of gel to generate the affinity columns. Excess N-hydroxysuccinimide linkages were blocked by adding 1M ethanolamine. The resulting column served as the support for the RNA selections. The tobramycin concentration on column was estimated as about 15 mM. Selections were performed in 1 ml column volumes in a buffer (selection buffer) containing 140 mM NaCl, 5 mM KCl, 1 mM CaCl2, 1 mM MgCl2, and 20 mM Tris acetate, pH 7.4 (Bock et al. (1992) Nature 355: 564-566). A 1 ml Affi-Gel 10 pre-column treated with ethanolamine was used in all selections.
The original double stranded DNA pool was constructed by large scale PCR amplification of the synthesized 109mer random DNA pool (Oligos, Etc., Inc., Wilsonville, Oreg.) containing 60 random nucleotides. […]

[4] = K1 - high affinity, read-out: Dissociation Constants K1(TOB)
[5] = K2 - low affinity, read-out: Dissociation Constants K2(TOB)

NC[C@H]1O[C@H](O[C@H]2[C@H](O)[C@@H](O[C@H]3O[C@H](CO)[C@@H](O)[C@H](N)[C@H]3O)[C@H](N)C[C@@H]2N)[C@H](N)C[C@@H]1O [tobramycin]
Kd [1]: 4.3 ± 0.7 µM
Kd (J6 RNA (SEQ ID NO:5); [4]): 0.002 ± 0.001 µM
Kd (J6 RNA (SEQ ID NO:5); [5]): 6 ± 0.4 µM
Kd [2, 4]: 0.009 ± 0.003 µM
Kd [2, 5]: 2.7 ± 0.3 µM
RNA eluted from tobramycin affinity column [3]: 96%
